Test results published in PubChem BioAssay (NCI).
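Assay format: 96-well plates, 48-hour exposure. TGI: total growth inhibition.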

Tests used:
Test in all cases: NCI-60 cell line screen, 48 h
MOLT-4 leukemia = tested on: MOLT-4 leukemia
OVCAR-5 ovarian = tested on: OVCAR-5 ovarian
NCI-H226 lung = tested on: NCI-H226 lung
COLO 205 colon = tested on: COLO 205 colon
BT-549 breast = tested on: BT-549 breast
SF-295 CNS = tested on: SF-295 CNS
CAKI-1 renal = tested on: CAKI-1 renal
ACHN renal = tested on: ACHN renal
HT29 colon = tested on: HT29 colon
HCT-116 colon = tested on: HCT-116 colon
IGROV1 ovarian = tested on: IGROV1 ovarian
SK-MEL-2 melanoma = tested on: SK-MEL-2 melanoma
SW-620 colon = tested on: SW-620 colon
K-562 leukemia = tested on: K-562 leukemia
786-0 renal = tested on: 786-0 renal
HCT-15 colon = tested on: HCT-15 colon
U251 CNS = tested on: U251 CNS
PC-3 prostate = tested on: PC-3 prostate
NCI-H460 lung = tested on: NCI-H460 lung
OVCAR-4 ovarian = tested on: OVCAR-4 ovarian
HOP-92 NSCLC = tested on: HOP-92 NSCLC
NCI-H522 lung = tested on: NCI-H522 lung
NCI-H23 lung = tested on: NCI-H23 lung
SK-OV-3 ovarian = tested on: SK-OV-3 ovarian
A498 renal = tested on: A498 renal
UO-31 renal = tested on: UO-31 renal
HS 578T breast = tested on: HS 578T breast
TK-10 renal = tested on: TK-10 renal
EKVX NSCLC = tested on: EKVX NSCLC
HOP-62 NSCLC = tested on: HOP-62 NSCLC
MCF7 breast = tested on: MCF7 breast
A549 NSCLC = tested on: A549 NSCLC
MDA-N = tested on: MDA-N
SN12C renal = tested on: SN12C renal
DU-145 prostate = tested on: DU-145 prostate
SF-539 CNS = tested on: SF-539 CNS
HL-60(TB) leukemia = tested on: HL-60(TB) leukemia
HCC-2998 colon = tested on: HCC-2998 colon
RPMI-8226 leukemia = tested on: RPMI-8226 leukemia
UACC-62 melanoma = tested on: UACC-62 melanoma
MDA-MB-435 = tested on: MDA-MB-435
LOX IMVI melanoma = tested on: LOX IMVI melanoma
MALME-3M melanoma = tested on: MALME-3M melanoma
OVCAR-8 ovarian = tested on: OVCAR-8 ovarian
T-47D breast = tested on: T-47D breast
M14 melanoma = tested on: M14 melanoma
SF-268 CNS = tested on: SF-268 CNS
SNB-19 CNS = tested on: SNB-19 CNS
OVCAR-3 ovarian = tested on: OVCAR-3 ovarian
MDA-MB-231 breast = tested on: MDA-MB-231 breast
CCRF-CEM leukemia = tested on: CCRF-CEM leukemia
NCI/ADR-RES ovarian = tested on: NCI/ADR-RES ovarian
RXF 393 renal = tested on: RXF 393 renal
SK-MEL-28 melanoma = tested on: SK-MEL-28 melanoma
SK-MEL-5 melanoma = tested on: SK-MEL-5 melanoma
SNB-75 CNS = tested on: SNB-75 CNS
KM12 colon = tested on: KM12 colon

Measured: TGI

C[C@@H](CC(O)C(O)C(C)(C)O)C1CCC23CC12CCC1[C@@]2(C)CCC(=O)C(C)(C)C2CC(OC2OC(CO)C(O)C(O)C2O)[C@]13C (some centres not stated)
> 10 µM: all assays above
